# According to PubChem BioAssay (NCI):
#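 48-hour exposure; five concentrations; linearly interpolated endpoints. The concentration for full growth arrest is given as TGI.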
# Legend:
# Test in all cases: NCI tumour cell line growth inhibition, 48 h
# CAKI-1 renal = system: CAKI-1 renal
# NCI-H522 lung = system: NCI-H522 lung
# SR leukemia = system: SR leukemia
# A498 renal = system: A498 renal
# HOP-62 NSCLC = system: HOP-62 NSCLC
# KM12 colon = system: KM12 colon
# DLD-1 colon = system: DLD-1 colon
# SNB-75 CNS = system: SNB-75 CNS
# SNB-19 CNS = system: SNB-19 CNS
# NCI-H226 lung = system: NCI-H226 lung
# A549 NSCLC = system: A549 NSCLC
# SK-MEL-28 melanoma = system: SK-MEL-28 melanoma
# CCRF-CEM leukemia = system: CCRF-CEM leukemia
# HCT-116 colon = system: HCT-116 colon
# ACHN renal = system: ACHN renal
# UACC-62 melanoma = system: UACC-62 melanoma
# 786-0 renal = system: 786-0 renal
# OVCAR-3 ovarian = system: OVCAR-3 ovarian
# MOLT-4 leukemia = system: MOLT-4 leukemia
# SF-539 CNS = system: SF-539 CNS
# NCI-H23 lung = system: NCI-H23 lung
# RPMI-8226 leukemia = system: RPMI-8226 leukemia
# EKVX NSCLC = system: EKVX NSCLC
# COLO 205 colon = system: COLO 205 colon
# XF 498 CNS = system: XF 498 CNS
# HCT-15 colon = system: HCT-15 colon
# DMS 114 small cell lung = system: DMS 114 small cell lung
# K-562 leukemia = system: K-562 leukemia
# KM20L2 colon = system: KM20L2 colon
# OVCAR-5 ovarian = system: OVCAR-5 ovarian
# TK-10 renal = system: TK-10 renal
# M14 melanoma = system: M14 melanoma
# SK-MEL-5 melanoma = system: SK-MEL-5 melanoma
# HT29 colon = system: HT29 colon
# SK-MEL-2 melanoma = system: SK-MEL-2 melanoma
# IGROV1 ovarian = system: IGROV1 ovarian
# M19-MEL melanoma = system: M19-MEL melanoma
# LXFL 529 NSCLC = system: LXFL 529 NSCLC
# SF-268 CNS = system: SF-268 CNS
# OVCAR-8 ovarian = system: OVCAR-8 ovarian
# SK-OV-3 ovarian = system: SK-OV-3 ovarian
# SW-620 colon = system: SW-620 colon
# SN12C renal = system: SN12C renal
# MALME-3M melanoma = system: MALME-3M melanoma
# HOP-92 NSCLC = system: HOP-92 NSCLC
# NCI-H460 lung = system: NCI-H460 lung
# SNB-78 CNS = system: SNB-78 CNS
# HL-60(TB) leukemia = system: HL-60(TB) leukemia
# OVCAR-4 ovarian = system: OVCAR-4 ovarian
# LOX IMVI melanoma = system: LOX IMVI melanoma
# U251 CNS = system: U251 CNS
# RXF 393 renal = system: RXF 393 renal
# SF-295 CNS = system: SF-295 CNS
compound,measurement,setting,value
O=C(N/N=C1/C(=O)N(c2ccc(Cl)cc2Cl)C(=O)C(=O)C1c1nc2ccccc2o1)c1ccccc1O (centres undefined),TGI,CAKI-1 renal,> 100 µM
same,TGI,NCI-H522 lung,87.7 µM
same,TGI,SR leukemia,> 100 µM
same,TGI,A498 renal,88.2 µM
same,TGI,HOP-62 NSCLC,75.2 µM
same,TGI,KM12 colon,> 100 µM
same,TGI,DLD-1 colon,> 100 µM
same,TGI,SNB-75 CNS,> 100 µM
same,TGI,SNB-19 CNS,> 100 µM
same,TGI,NCI-H226 lung,> 100 µM
same,TGI,A549 NSCLC,> 100 µM
same,TGI,SK-MEL-28 melanoma,71 µM
same,TGI,CCRF-CEM leukemia,> 100 µM
same,TGI,HCT-116 colon,> 100 µM
same,TGI,ACHN renal,> 100 µM
same,TGI,UACC-62 melanoma,48.6 µM
same,TGI,786-0 renal,> 100 µM
same,TGI,OVCAR-3 ovarian,52.4 µM
same,TGI,MOLT-4 leukemia,> 100 µM
same,TGI,SF-539 CNS,97.1 µM
same,TGI,NCI-H23 lung,84.3 µM
same,TGI,RPMI-8226 leukemia,> 100 µM
same,TGI,EKVX NSCLC,> 100 µM
same,TGI,COLO 205 colon,> 100 µM
same,TGI,XF 498 CNS,75.2 µM
same,TGI,HCT-15 colon,> 100 µM
same,TGI,DMS 114 small cell lung,78.5 µM
same,TGI,K-562 leukemia,> 100 µM
same,TGI,KM20L2 colon,> 100 µM
same,TGI,OVCAR-5 ovarian,> 100 µM
same,TGI,TK-10 renal,> 100 µM
same,TGI,M14 melanoma,76.2 µM
same,TGI,SK-MEL-5 melanoma,40.2 µM
same,TGI,HT29 colon,> 100 µM
same,TGI,SK-MEL-2 melanoma,> 100 µM
same,TGI,IGROV1 ovarian,> 100 µM
same,TGI,M19-MEL melanoma,> 100 µM
same,TGI,LXFL 529 NSCLC,> 100 µM
same,TGI,SF-268 CNS,> 100 µM
same,TGI,OVCAR-8 ovarian,> 100 µM
same,TGI,SK-OV-3 ovarian,> 100 µM
same,TGI,SW-620 colon,> 100 µM
same,TGI,SN12C renal,> 100 µM
same,TGI,MALME-3M melanoma,78.6 µM
same,TGI,HOP-92 NSCLC,93.5 µM
same,TGI,NCI-H460 lung,> 100 µM
O=C(NC(=O)c1cn(CCNCCO)c(=O)[nH]c1=O)OCc1ccccc1,TGI,CAKI-1 renal,> 100 µM
same,TGI,NCI-H522 lung,> 100 µM
same,TGI,SR leukemia,> 100 µM
same,TGI,HOP-62 NSCLC,> 100 µM
same,TGI,KM12 colon,> 100 µM
same,TGI,DLD-1 colon,> 100 µM
same,TGI,SNB-75 CNS,> 100 µM
same,TGI,NCI-H226 lung,> 100 µM
same,TGI,A549 NSCLC,> 100 µM
same,TGI,SK-MEL-28 melanoma,> 100 µM
same,TGI,CCRF-CEM leukemia,> 100 µM
same,TGI,HCT-116 colon,> 100 µM
same,TGI,ACHN renal,> 100 µM
same,TGI,UACC-62 melanoma,> 100 µM
same,TGI,786-0 renal,> 100 µM
same,TGI,OVCAR-3 ovarian,> 100 µM
same,TGI,MOLT-4 leukemia,> 100 µM
same,TGI,SNB-78 CNS,> 100 µM
same,TGI,HL-60(TB) leukemia,> 100 µM
same,TGI,SF-539 CNS,> 100 µM
same,TGI,OVCAR-4 ovarian,> 100 µM
same,TGI,NCI-H23 lung,> 100 µM
same,TGI,RPMI-8226 leukemia,> 100 µM
same,TGI,EKVX NSCLC,> 100 µM
same,TGI,COLO 205 colon,> 100 µM
same,TGI,HCT-15 colon,> 100 µM
same,TGI,DMS 114 small cell lung,> 100 µM
same,TGI,K-562 leukemia,> 100 µM
same,TGI,LOX IMVI melanoma,> 100 µM
same,TGI,U251 CNS,> 100 µM
same,TGI,OVCAR-5 ovarian,> 100 µM
same,TGI,TK-10 renal,> 100 µM
same,TGI,M14 melanoma,> 100 µM
same,TGI,SK-MEL-5 melanoma,> 100 µM
same,TGI,HT29 colon,> 100 µM
same,TGI,IGROV1 ovarian,> 100 µM
same,TGI,M19-MEL melanoma,> 100 µM
same,TGI,LXFL 529 NSCLC,> 100 µM
same,TGI,SF-268 CNS,> 100 µM
same,TGI,RXF 393 renal,> 100 µM
same,TGI,OVCAR-8 ovarian,> 100 µM
same,TGI,SF-295 CNS,> 100 µM
same,TGI,SK-OV-3 ovarian,> 100 µM
same,TGI,SW-620 colon,> 100 µM
same,TGI,SN12C renal,> 100 µM
same,TGI,MALME-3M melanoma,> 100 µM
same,TGI,HOP-92 NSCLC,> 100 µM
same,TGI,NCI-H460 lung,> 100 µM
